Calls of active or inactive are those of the source. The rule behind the calls is not given here.
Tested on: rodent carcinogenicity bioassays, tumor incidence
Experiment: CCRIS carcinogenicity studies
In short: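 Archive of carcinogenicity, mutagenicity, tumor promotion and tumor inhibition results drawn from journals, NCI reports and other sources, expert-reviewed; covers 1985-2011 and is no longer updated.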

Measured: carcinogen call

CCOC(N)=O
active: Species: HAMSTER, Route: DERMAL, Tumor Site: Type of Lesion: INTEGUMENTARY SYSTEM (SKIN), MAMMARY GLAND active; positive | Species: HAMSTER, Route: INTRAPERITONEAL, Tumor Site: Type of Lesion: INTEGUMENTARY SYSTEM (SKIN) active; positive | Species: HAMSTER, Route: ORAL, Tumor Site: Type of Lesion: FORESTOMACH, INTEGUMENTARY SYSTEM (SKIN) active; positive | Species: HAMSTER, Route: SUBCUTANEOUS, Tumor Site: Type of Lesion: ADRENAL GLAND, FORESTOMACH, INTESTINES, INTEGUMENTARY SYSTEM (SKIN), Tumor Site: Type of Lesion: ADRENAL GLAND, FORESTOMACH, INTESTINES, INTEGUMENTARY SYSTEM (SKIN) active; positive | Species: MOUSE, Route: INHALATION, Tumor Site: Type of Lesion: LUNG active; positive | Species: MOUSE, Route: INTRAPERITONEAL, Tumor Site: Type of Lesion: HEMATOPOIETIC SYSTEM (LEUKEMIA), LYMPHATIC SYSTEM: LYMPHOMA, LUNG, LIVER, HARDERIAN GLAND, OVARIES, Tumor Site: Type of Lesion: HEMATOPOIETIC SYSTEM (LEUKEMIA), LYMPHATIC SYSTEM: LYMPHOMA, LUNG, LIVER, HARDERIAN GLAND, OVARIES active; positive | Species: MOUSE, Route: INTRAPERITONEAL, Tumor Site: Type of Lesion: LUNG, LIVER active; positive | Species: MOUSE, Route: ORAL, Tumor Site: Type of Lesion: HEMATOPOIETIC SYSTEM (LEUKEMIA): LYMPHOCYTIC LEUKEMIA, LYMPHATIC SYSTEM: LYMPHOSARCOMA, MAMMARY GLAND, LUNG, LIVER, THYM, Tumor Site: Type of Lesion: HEMATOPOIETIC SYSTEM (LEUKEMIA): LYMPHOCYTIC LEUKEMIA, LYMPHATIC SYSTEM: LYMPHOSARCOMA, MAMMARY GLAND, LUNG, LIVER, THYM active; positive | Species: MOUSE, Route: SUBCUTANEOUS, Tumor Site: Type of Lesion: HARDERIAN GLAND, HEMATOPOIETIC SYSTEM (LEUKEMIA), LIVER, LUNG, Tumor Site: Type of Lesion: HARDERIAN GLAND, HEMATOPOIETIC SYSTEM (LEUKEMIA), LIVER, LUNG active; positive | Species: MOUSE, Strain/Sex: B6C3F1/FEMALE (48/GROUP), Route: ORAL, Dose: 10, 30, 90 PPM IN DRINKING WATER (STUDY DURATION: 2 YRS), Dose: 10, 30, 90 PPM IN DRINKING WATER (STUDY DURATION: 2 YRS), Tumor Site: Type of Lesion: MAMMARY GLAND: ADENOACANTHOMA, ADENOCARCINOMA, OVARY: GRANULOSA CELL TUMOR (BENIGN OR MALIGNANT), SPLEEN: HEMANGIOSARCOM, Tumor Site: Type of Lesion: MAMMARY GLAND: ADENOACANTHOMA, ADENOCARCINOMA, OVARY: GRANULOSA CELL TUMOR (BENIGN OR MALIGNANT), SPLEEN: HEMANGIOSARCOM active; positive ; marginal but not significant increases of hemangiosarcomas occurred i | Species: MOUSE, Strain/Sex: B6C3F1/MALE (48/GROUP), Route: ORAL, Dose: 10, 30, 90 PPM IN DRINKING WATER (STUDY DURATION: 2 YRS), Dose: 10, 30, 90 PPM IN DRINKING WATER (STUDY DURATION: 2 YRS), Tumor Site: Type of Lesion: HEART: HEMANGIOSARCOMA, FORESTOMACH: SQUAMOUS CELL PAPILLOMA OR CARCINOMA (COMBINED), SKIN: SQUAMOUS CELL PAPILLOMA OR C, Tumor Site: Type of Lesion: HEART: HEMANGIOSARCOMA, FORESTOMACH: SQUAMOUS CELL PAPILLOMA OR CARCINOMA (COMBINED), SKIN: SQUAMOUS CELL PAPILLOMA OR C active; positive | Species: MOUSE, Strain/Sex: B6C3F1/MALE, FEMALE (48/GROUP), Route: ORAL, Dose: 10, 30, 90 PPM IN DRINKING WATER (STUDY DURATION: 2 YRS), Dose: 10, 30, 90 PPM IN DRINKING WATER (STUDY DURATION: 2 YRS), Tumor Site: Type of Lesion: LIVER: HEMANGIOSARCOMA, HEPATOCELLULAR ADENOMA OR CARCINOMA (COMBINED), LUNG: ADENOMA OR CARCINOMA (COMBINED): HARDERIAN active; positive | Species: MOUSE, Strain/Sex: B6C3F1/MALE, Route: INTRAPERITONEAL, Dose: 0, 125 UG/G BW IN 10 µL TRIOCTANOIN ONCE (STUDY DURATION: 9 MO), Tumor Site: Type of Lesion: LIVER: HEPATOMA active; positive | Species: MOUSE, Strain/Sex: B6C3F1/MALE, Route: ORAL, Dose: 0, 0.6, 3, 6, 60, 600 PPM IN DRINKING WATER FOR 70 WK (STUDY DURATION: 70 WK), Dose: 0, 0.6, 3, 6, 60, 600 PPM IN DRINKING WATER FOR 70 WK (STUDY DURATION: 70 WK), Tumor Site: Type of Lesion: LUNG: ALVEOLAR/BRONCHIOLAR CARCINOMA, ALVEOLAR/BRONCHIOLAR ADENOMA, LIVER: ANGIOSARCOMA, HEMANGIOMA active; positive | Species: MOUSE, Strain/Sex: C57BL, Route: INTRAPERITONEAL, Dose: 1.00 MG/G 10 TIMES AT WEEKLY INTERVALS, Tumor Site: Type of Lesion: THYMUS GLAND: LYMPHOSARCOMA, LUNG: ADENOMA active; positive | Species: MOUSE, Strain/Sex: CTM/MALE,FEMALE, Route: ORAL, Dose: 0, 0.4% IN DRINKING WATER, 1 OR 2 10-D TREATMENTS OR 1, 2 OR 3 5-D TREATMENTS WITH 10-D INTERVALS BETWEEN TREATMENTS, Dose: 0, 0.4% IN DRINKING WATER, 1 OR 2 10-D TREATMENTS OR 1, 2 OR 3 5-D TREATMENTS WITH 10-D INTERVALS BETWEEN TREATMENTS, Tumor Site: Type of Lesion: LUNG: ADENOMA, LYMPHOSARCOMA active; positive | Species: MOUSE, Strain/Sex: HR/HR/MALE, FEMALE, Route: DERMAL, Dose: 0, 10, 20, 40% IN 200 µL ACETONE 2/WK FOR STUDY DURATION (STUDY DURATION: 56-60 WK), Dose: 0, 10, 20, 40% IN 200 µL ACETONE 2/WK FOR STUDY DURATION (STUDY DURATION: 56-60 WK), Tumor Site: Type of Lesion: SKIN: CARCINOMA, PAPILLOMA, LUNG: ADENOMA active; positive | Species: MOUSE, Strain/Sex: HR/HR/MALE, FEMALE, Route: DERMAL, Dose: 0, 15, 30, 75% IN PROPYLENE GLYCOL 2/WK FOR STUDY DURATION (STUDY DURATION: 56-60 WK), Dose: 0, 15, 30, 75% IN PROPYLENE GLYCOL 2/WK FOR STUDY DURATION (STUDY DURATION: 56-60 WK), Tumor Site: Type of Lesion: SKIN: CARCINOMA, PAPILLOMA, LUNG: ADENOMA active; positive | Species: MOUSE, Strain/Sex: ICR/FEMALE, Route: INHALATION, Dose: 0, 0.25 UG/ML AIR FOR 0.25 D (TOTAL DOSE 0.25 UG/ML/D) (STUDY DURATION: 5 MO), Tumor Site: Type of Lesion: LUNG: TUMOR, HEMATOPOIETIC SYSTEM: LEUKEMIA active; positive | Species: MOUSE, Strain/Sex: ICR/FEMALE, Route: INHALATION, Dose: 0, 0.25 UG/ML AIR FOR 3 D (TOTAL DOSE 0.75 UG/ML/D) (STUDY DURATION: 5 MO), Tumor Site: Type of Lesion: LUNG: TUMOR, HEMATOPOIETIC SYSTEM: LEUKEMIA active; positive

Source: PubChem BioAssay AID1259411 (Chemical Carcinogenesis Research Information System (CCRIS), 2018)
